Broadly, the IC50 is the point on the concentration scale where inhibition reaches its midpoint.

The experiment deals with T1, Src recombinant enzyme, N-terminally His6 tagged full-length human protein (Homo sapiens, UniProt P12931).
T1 construct: Src recombinant enzyme was purchased as N-terminally His6 tagged full-length human protein; His6 (N); purchased
T1 sequence (P12931 whole entry): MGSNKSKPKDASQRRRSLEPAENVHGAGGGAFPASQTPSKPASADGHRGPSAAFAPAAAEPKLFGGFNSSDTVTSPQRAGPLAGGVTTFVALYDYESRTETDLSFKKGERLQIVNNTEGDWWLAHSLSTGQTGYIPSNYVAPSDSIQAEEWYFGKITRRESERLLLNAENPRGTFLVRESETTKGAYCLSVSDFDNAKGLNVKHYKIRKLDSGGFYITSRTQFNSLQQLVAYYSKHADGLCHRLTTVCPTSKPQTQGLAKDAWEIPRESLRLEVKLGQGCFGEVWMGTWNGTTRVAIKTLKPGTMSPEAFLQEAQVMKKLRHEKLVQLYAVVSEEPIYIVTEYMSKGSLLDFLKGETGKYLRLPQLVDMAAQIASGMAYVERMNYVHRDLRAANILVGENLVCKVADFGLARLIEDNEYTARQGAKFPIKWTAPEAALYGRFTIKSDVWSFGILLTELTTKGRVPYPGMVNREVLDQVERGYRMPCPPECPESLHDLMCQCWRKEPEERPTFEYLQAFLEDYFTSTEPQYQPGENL
Description: SRC kinase inhibition assay (AlphaScreen). Particulars: 80 μM ATP, 90 minutes at 30 degree Celsius. It is filed as biochemical. As for the experimental part:
Protocol for SRC Kinase Inhibition Assay. Compounds of the invention were tested for in vitro activity in the following assay: A biotin labeled peptide was used as substrate (amino acid sequence: Biotin-[…]). Src recombinant enzyme was purchased as N-terminally His6 tagged full-length human protein. The 15 μL assay reactions were run in Greiner brand white 384-well low volume plates. […] Compounds were added in a volume of 100 nL from dilution series made up in DMSO, positive and negative control reactions receiving the same volume DMSO without compounds. The plates were sealed with adhesive seals and incubated for 90 minutes at 30 degree Celsius. The reactions were stopped with the detection reagents added at the same time. Product formation was quantified as photochemiluminescence between PerkinElmer AlphaScreenTM beads, using Streptavidin-coated donor and anti-phosphotyrosine (P-[…]) acceptor beads. […] Plates were incubated for 5 hours before being read on a PerkinElmer EnVisionTM plate reader in HTS AlphascreenTM mode. IC50 values were obtained by calculating percent inhibition (% I) for each reaction relative to controls on the same plate (% [SMILES] where CN/CP are the averages of the negative/positive reactions, respectively), then fitting the % I data vs. compound concentration [I] to % I=([…])))) where A is the lower asymptote, B is the upper asymptote, C is the IC50 value, and D is the slope factor.
On the technique in general: Alpha assays give light when donor and acceptor beads are brought close together.
Turning to `CNCC(C)(C)n1nc(-c2ccc(C)cc2)c2c(N)ncnc21` [4 (compound 4C)], the 50% inhibitory concentration (IC50) fell in the range of 100 to 1000 nM.

For the molecule `Cc1ccc(-c2nn(C(C)(C)CNC(=N)N)c3ncnc(N)c23)cc1` [5 (compound 5B)], the IC50 fell in the range of 1 to 100 nM.

For the molecule `Cc1ccc(-c2nn(C(C)(C)CNC(N)=S)c3ncnc(N)c23)cc1` [6 (compound 6B)], the IC50 was in the range of 1 to 100 nM.

For `Cc1ccc(-c2nn(C(C)(C)CNC(=O)c3ccc(CCN)cc3)c3ncnc(N)c23)cc1` [10 (compound 10C)], the half-inhibitory concentration (IC50) lay within 1 to 100 nM.

As for `Cc1ccc(-c2nn(C(C)(C)CNC(=O)c3ccc(CN)cc3)c3ncnc(N)c23)cc1` [13 (compound 13C)], the IC50 fell in the range of 1 to 100 nM.

`Cc1ccc(-c2nn(C(C)(C)CNS(=O)(=O)c3ccccn3)c3ncnc(N)c23)cc1` [68 (compound 68B)]: the 50% inhibitory concentration (IC50) fell in the range of 100 to 1000 nM.

Take `Cc1ccc(-c2nn(C(C)(C)CNC(=O)c3cc(N4CCCCC4)ccn3)c3ncnc(N)c23)cc1` [69 (compound 69C)]: the IC50 was in the range of 1 to 100 nM.

As for `Cc1ccc(-c2nn(C(C)(C)CNC(=O)c3cc(N4CCOCC4)ccn3)c3ncnc(N)c23)cc1` [70 (compound 70C)], the IC50 was 100 to 1000 nM.

In the case of `Cc1ccc(-c2nn(C(C)(C)CNC(=O)CCCCCN)c3ncnc(N)c23)cc1` [84 (compound 84C)], the 50% inhibitory concentration (IC50) was in the range of 100 to 1000 nM.

In the case of `Cc1ccc(-c2nn(C(C)(C)CNC(=O)CCCN)c3ncnc(N)c23)cc1` [85 (compound 85C)], the IC50 was 100 to 1000 nM.

As to `CC(=O)NCC(C)(C)n1nc(-c2ccc(C)cc2)c2c(N)ncnc21` [Example 2], the IC50 is 100 to 1000 nM.

`Cc1ccc(-c2nn(C(C)(C)CN(C)C)c3ncnc(N)c23)cc1` [Example 3]: the IC50 lay in the range of 1000 to 10000 nM.

Take `CCNC(=O)NCC(C)(C)n1nc(-c2ccc(C)cc2)c2c(N)ncnc21` [Example 7]: the IC50 is 1 to 100 nM.

As to `Cc1ccc(-c2nn(C(C)(C)CNC(C)C)c3ncnc(N)c23)cc1` [Example 8], the IC50 lay within 100 to 1000 nM.

In the case of `Cc1ccc(-c2nn(C(C)(C)CNC(=O)Cc3ccccc3)c3ncnc(N)c23)cc1` [Example 9], the half-inhibitory concentration (IC50) is 1000 to 10000 nM.

As to `Cc1ccc(-c2nn(C(C)(C)CNC(=O)c3ccccc3-n3ccnc3)c3ncnc(N)c23)cc1` [Example 14], the IC50 was in the range of 100 to 1000 nM.

Take `Cc1ccc(-c2nn(C(C)(C)CNC(=O)CCCCCNC(=O)OCc3ccccc3)c3ncnc(N)c23)cc1` [Example 15]: the IC50 lay in the range of 100 to 1000 nM.

Turning to `CC(=O)CCC(=O)NCC(C)(C)n1nc(-c2ccc(C)cc2)c2c(N)ncnc21` [Example 16], the IC50 is 1000 to 10000 nM.

For the molecule `COCCC(=O)NCC(C)(C)n1nc(-c2ccc(C)cc2)c2c(N)ncnc21` [Example 17], the IC50 lay in the range of 1 to 100 nM.

As to `Cc1ccc(-c2nn(C(C)(C)CNC(=O)c3cccc(N4CCOCC4)c3)c3ncnc(N)c23)cc1` [Example 18], the concentration for half-maximal inhibition (IC50) fell in the range of 100 to 1000 nM.

On to `Cc1ccc(-c2nn(C(C)(C)CNC(=O)CC#N)c3ncnc(N)c23)cc1` [Example 19], for which the IC50 fell in the range of 1 to 100 nM.

As for `Cc1ccc(-c2nn(C(C)(C)CNC(=O)CCCc3ccccc3)c3ncnc(N)c23)cc1` [Example 20], the IC50 lay in the range of 100 to 1000 nM.

With `Cc1ccc(-c2nn(C(C)(C)CNC(=O)c3ccc(N4CCCCC4)cc3)c3ncnc(N)c23)cc1` [Example 21], the half-inhibitory concentration (IC50) was 100 to 1000 nM.

Regarding `Cc1ccc(-c2nn(C(C)(C)CNC(=O)c3cccc(N4CCCCC4)c3)c3ncnc(N)c23)cc1` [Example 22], the IC50 is 100 to 1000 nM.

Regarding `Cc1ccc(-c2nn(C(C)(C)CNC(=O)c3cc(-c4ccco4)on3)c3ncnc(N)c23)cc1` [Example 23], the IC50 fell in the range of 1 to 100 nM.

Turning to `Cc1ccc(-c2nn(C(C)(C)CNC(=O)c3cc(-c4ccc(F)cc4)ncn3)c3ncnc(N)c23)cc1` [Example 24], the IC50 is 1000 to 10000 nM.

Take `CC(=O)c1ccc(OCC(=O)NCC(C)(C)n2nc(-c3ccc(C)cc3)c3c(N)ncnc32)cc1` [Example 25]: the half-maximal inhibitory concentration (IC50) was in the range of 1000 to 10000 nM.

Regarding `Cc1ccc(-c2nn(C(C)(C)CNC(=O)c3cnn(-c4cccc(Cl)c4)c3C(F)(F)F)c3ncnc(N)c23)cc1` [Example 26], the IC50 lay within 1 to 100 nM.

On to `Cc1ccc(-c2nn(C(C)(C)CNC(=O)c3cc(C)nn3Cc3ccc(F)cc3)c3ncnc(N)c23)cc1` [Example 27], for which the IC50 lay in the range of 100 to 1000 nM.

`Cc1ccc(-c2nn(C(C)(C)CNC(=O)c3cnn(-c4ccc(F)cc4)c3C(F)(F)F)c3ncnc(N)c23)cc1` [Example 28]: the IC50 is 1 to 100 nM.

On to `Cc1ccc(-c2nn(C(C)(C)CNC(=O)c3cnn(-c4ccc(Br)cc4)c3C(F)(F)F)c3ncnc(N)c23)cc1` [Example 29], for which the 50% inhibitory concentration (IC50) fell in the range of 100 to 1000 nM.

For `CC(=O)CCCCC(=O)NCC(C)(C)n1nc(-c2ccc(C)cc2)c2c(N)ncnc21` [Example 30], the IC50 was 100 to 1000 nM.

For `CC(=O)CCCC(=O)NCC(C)(C)n1nc(-c2ccc(C)cc2)c2c(N)ncnc21` [Example 31], the IC50 fell in the range of 100 to 1000 nM.

`CCOc1ccc(C(=O)NCC(C)(C)n2nc(-c3ccc(C)cc3)c3c(N)ncnc32)cc1Cl` [Example 32]: the IC50 fell in the range of 100 to 1000 nM.

Regarding `Cc1ccc(-c2nn(C(C)(C)CNC(=O)c3cccn3C)c3ncnc(N)c23)cc1` [Example 33], the IC50 lay in the range of 100 to 1000 nM.

For the molecule `Cc1ccc(-c2nn(C(C)(C)CNC(=O)c3cccc(C#N)c3)c3ncnc(N)c23)cc1` [Example 34], the IC50 lay within 100 to 1000 nM.

On to `Cc1ccc(-c2nn(C(C)(C)CNC(=O)CCCOCc3ccccc3)c3ncnc(N)c23)cc1` [Example 35], for which the IC50 was in the range of 100 to 1000 nM.

Turning to `Cc1ccc(-c2nn(C(C)(C)CNC(=O)CCCc3ccc4c(c3)OCCO4)c3ncnc(N)c23)cc1` [Example 36], the IC50 fell in the range of 100 to 1000 nM.

`Cc1ccc(-c2nn(C(C)(C)CNC(=O)CCN3CCOCC3)c3ncnc(N)c23)cc1` [Example 37]: the IC50 was 100 to 1000 nM.

As for `CCN(CC)c1ccc(C(=O)NCC(C)(C)n2nc(-c3ccc(C)cc3)c3c(N)ncnc32)cc1` [Example 38], the IC50 is 100 to 1000 nM.

As to `Cc1ccc(-c2nn(C(C)(C)CNC(=O)CCOc3ccccc3)c3ncnc(N)c23)cc1` [Example 39], the IC50 lay in the range of 100 to 1000 nM.

Regarding `Cc1ccc(-c2nn(C(C)(C)CNC(=O)c3cccc(Br)n3)c3ncnc(N)c23)cc1` [Example 40], the IC50 fell in the range of 100 to 1000 nM.

With `Cc1ccc(-c2nn(C(C)(C)CNC(=O)c3cccc(F)n3)c3ncnc(N)c23)cc1` [Example 41], the IC50 lay in the range of 100 to 1000 nM.

Turning to `Cc1ccc(-c2nn(C(C)(C)CNC(=O)c3ccnc(Cl)c3)c3ncnc(N)c23)cc1` [Example 43], the concentration for half-maximal inhibition (IC50) lay in the range of 100 to 1000 nM.

As for `Cc1ccc(-c2nn(C(C)(C)CNC(=O)c3ccnc(Cl)n3)c3ncnc(N)c23)cc1` [Example 44], the IC50 was 100 to 1000 nM.

Consider `Cc1ccc(-c2nn(C(C)(C)CNC(=O)c3ccc(Br)cn3)c3ncnc(N)c23)cc1` [Example 45], for which the IC50 was 1000 to 10000 nM.

For `Cc1ccc(-c2nn(C(C)(C)CNC(=O)c3ccnnc3)c3ncnc(N)c23)cc1` [Example 46], the IC50 was 100 to 1000 nM.

With `Cc1ccc(-c2nn(C(C)(C)CNC(=O)c3ccc(Cl)nc3Cl)c3ncnc(N)c23)cc1` [Example 47], the IC50 lay within 100 to 1000 nM.

On to `Cc1ccc(-c2nn(C(C)(C)CNC(=O)c3nc(Cl)ccc3Cl)c3ncnc(N)c23)cc1` [Example 48], for which the IC50 lay within 100 to 1000 nM.

In the case of `Cc1ccc(-c2nn(C(C)(C)CNC(=O)c3nc(Cl)ccc3Br)c3ncnc(N)c23)cc1` [Example 49], the half-maximal inhibitory concentration (IC50) was 1000 to 10000 nM.

For the molecule `Cc1ccc(-c2nn(C(C)(C)CNC(=O)c3cnc4ccccc4n3)c3ncnc(N)c23)cc1` [Example 51], the IC50 lay within 100 to 1000 nM.

Regarding `Cc1ccc(-c2nn(C(C)(C)CNC(=O)c3ccc(F)cc3)c3ncnc(N)c23)cc1` [Example 53], the IC50 fell in the range of 100 to 1000 nM.

Take `Cc1ccc(-c2nn(C(C)(C)CNC(=O)c3ccccc3F)c3ncnc(N)c23)cc1` [Example 54]: the IC50 is 100 to 1000 nM.

In the case of `Cc1ccc(-c2nn(C(C)(C)CNC(=O)c3cccc(F)c3)c3ncnc(N)c23)cc1` [Example 55], the IC50 was in the range of 1000 to 10000 nM.

As to `Cc1ccc(-c2nn(C(C)(C)CNC(=O)c3ncccn3)c3ncnc(N)c23)cc1` [Example 58], the IC50 was in the range of 1 to 100 nM.

`Cc1ccc(-c2nn(C(C)(C)CNC(=O)c3ccncc3)c3ncnc(N)c23)cc1` [Example 67]: the IC50 lay within 1000 to 10000 nM.

Take `Cc1ccc(-c2nn(C(C)(C)CNC(=O)c3ccc(C)cn3)c3ncnc(N)c23)cc1` [Example 72]: the IC50 is 1 to 100 nM.

Consider `Cc1ccc(-c2nn(C(C)(C)CNC3=NCCN3)c3ncnc(N)c23)cc1` [Example 78], for which the IC50 is 100 to 1000 nM.

As to `CC(=N)NCC(C)(C)n1nc(-c2ccc(C)cc2)c2c(N)ncnc21` [Example 80], the IC50 lay in the range of 100 to 1000 nM.

`Cc1ccc(-c2nn(C(C)(C)CNC(=N)NC#N)c3ncnc(N)c23)cc1` [Example 81]: the IC50 fell in the range of 1 to 100 nM.

For the molecule `Cc1ccc(-c2nn(C(C)(C)CNC(=O)c3cc(CN4CCCCC4)ccn3)c3ncnc(N)c23)cc1` [Example 82], the IC50 fell in the range of 1 to 100 nM.

On to `Cc1ccc(-c2nn(C(C)(C)CNC(=O)c3cc(CN4CCOCC4)ccn3)c3ncnc(N)c23)cc1` [Example 83], for which the half-inhibitory concentration (IC50) lay in the range of 1 to 100 nM.

Regarding `Cc1ccc(-c2nn(C(C)(C)CNc3ncccn3)c3ncnc(N)c23)cc1` [Example 88], the IC50 was 100 to 1000 nM.

Regarding `COCCOc1ccnc(C(=O)NCC(C)(C)n2nc(-c3ccc(C)cc3)c3c(N)ncnc32)c1` [Example 89], the IC50 was 1 to 100 nM.

The record behind these values is US8962830B2, “Protein kinase inhibitors and methods of treatment” (The Walter and Eliza Hall Institute of Medical Research, priority 2010, dated 2015).
